Measurements from patent publication US20260355212A1 (priority 2022, published 2026).
Read-outs that look alike come from different tables or passages of the source.

Columns and labels:
[1] = target: SARS-CoV-2 Mpro (Severe acute respiratory syndrome coronavirus 2, UniProt P0DTD1); assay: SARS-CoV-2 Mpro enzymatic inhibition assay (fluorescence); type: biochemical
Method in brief: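 A fluorescence readout (340 nm excitation, 490 nm emission) was taken after the substrate reaction ran 60 min at 30° C. Before substrate addition, E. coli-expressed protease and compound (3-fold dilutions, 10 doses, duplicates) sat together 30 min at room temperature. Percent inhibition was fitted by variable-slope nonlinear regression to give IC50.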

[2] = target: HCoV-229E Mpro (Human coronavirus 229E, UniProt P0C6X1); assay: HCoV-229E Mpro enzymatic inhibition assay (fluorescence); type: biochemical
[3] = target: HCoV-HKU1 Mpro (Human coronavirus HKU1, UniProt P0C6X2); assay: HCoV-HKU1 Mpro enzymatic inhibition assay (fluorescence); type: biochemical
Method in brief: (§1)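 Steps: compound dilution series (3-fold, 10 doses) dispensed; Mpro added and pre-incubated 30 min at room temperature; substrate added; plates incubated 60 min at 30 °C; fluorescence measured at Ex/Em=340 nm/490 nm.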

[4] = target: MERS Mpro (Middle East respiratory syndrome-related coronavirus, UniProt K9N7C7); assay: biochemical; parameters: species or system MERS-CoV
[5] = target: HCoV-NL63 Mpro (Human coronavirus NL63, UniProt P0C6X5); assay: HCoV-NL63 Mpro enzymatic inhibition assay (fluorescence); type: biochemical
Method in brief: as §1

[6] = target: HCoV-OC43 Mpro (Human coronavirus OC43, UniProt P0C6X6); assay: HCoV-OC43 Mpro enzymatic inhibition assay (fluorescence); type: biochemical
Method in brief: as §1

[7] = target: SARS-CoV-1 Mpro (Severe acute respiratory syndrome coronavirus, UniProt P0C6X7); assay: biochemical
[8] = mean, 25 nM protein, 25 μM substrate, 30 min pre-incubation, 60 min at 30° C., read-out: Mpro_SARS-CoV-2 mean IC50

HCoV-NL63 Mpro, sequence (P0C6X5 2940-3242 limits assumed): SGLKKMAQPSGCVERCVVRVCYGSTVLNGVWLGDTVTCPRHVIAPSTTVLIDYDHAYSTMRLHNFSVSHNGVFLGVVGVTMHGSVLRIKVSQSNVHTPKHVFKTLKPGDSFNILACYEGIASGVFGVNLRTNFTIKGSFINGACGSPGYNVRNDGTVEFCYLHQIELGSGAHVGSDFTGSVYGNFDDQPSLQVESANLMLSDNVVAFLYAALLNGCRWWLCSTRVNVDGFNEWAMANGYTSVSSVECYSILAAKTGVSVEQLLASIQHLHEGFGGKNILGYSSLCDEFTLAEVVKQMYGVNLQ
HCoV-OC43 Mpro, sequence (P0C6X6 3247-3549 limits assumed): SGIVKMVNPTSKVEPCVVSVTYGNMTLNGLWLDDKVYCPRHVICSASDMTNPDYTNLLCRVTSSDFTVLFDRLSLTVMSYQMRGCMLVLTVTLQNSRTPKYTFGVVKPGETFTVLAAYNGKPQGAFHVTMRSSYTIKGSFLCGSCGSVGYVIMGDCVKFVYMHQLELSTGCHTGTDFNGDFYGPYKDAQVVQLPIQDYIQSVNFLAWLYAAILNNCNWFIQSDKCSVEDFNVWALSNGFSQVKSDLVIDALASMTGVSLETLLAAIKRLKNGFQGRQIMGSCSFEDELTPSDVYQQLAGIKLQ
HCoV-229E Mpro, sequence (P0C6X1 2966-3267 limits assumed): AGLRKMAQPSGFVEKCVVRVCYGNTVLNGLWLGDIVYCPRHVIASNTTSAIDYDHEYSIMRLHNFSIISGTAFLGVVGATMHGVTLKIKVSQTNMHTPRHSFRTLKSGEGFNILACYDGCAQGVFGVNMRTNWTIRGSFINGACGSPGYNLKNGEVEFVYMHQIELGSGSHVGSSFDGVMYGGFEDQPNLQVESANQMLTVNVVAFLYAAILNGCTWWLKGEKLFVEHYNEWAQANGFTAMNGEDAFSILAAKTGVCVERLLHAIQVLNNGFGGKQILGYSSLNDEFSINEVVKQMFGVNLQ
HCoV-HKU1 Mpro, sequence (P0C6X2 3335-3637 limits assumed): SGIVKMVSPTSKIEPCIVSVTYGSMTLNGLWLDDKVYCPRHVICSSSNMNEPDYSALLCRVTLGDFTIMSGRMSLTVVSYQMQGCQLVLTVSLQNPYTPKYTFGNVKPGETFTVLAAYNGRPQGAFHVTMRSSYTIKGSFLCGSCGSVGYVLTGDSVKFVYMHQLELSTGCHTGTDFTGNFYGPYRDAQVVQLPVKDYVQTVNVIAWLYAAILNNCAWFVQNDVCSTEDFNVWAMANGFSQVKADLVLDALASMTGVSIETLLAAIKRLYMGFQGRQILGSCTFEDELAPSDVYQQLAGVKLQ
MERS Mpro, sequence (K9N7C7 3248-3553 limits assumed): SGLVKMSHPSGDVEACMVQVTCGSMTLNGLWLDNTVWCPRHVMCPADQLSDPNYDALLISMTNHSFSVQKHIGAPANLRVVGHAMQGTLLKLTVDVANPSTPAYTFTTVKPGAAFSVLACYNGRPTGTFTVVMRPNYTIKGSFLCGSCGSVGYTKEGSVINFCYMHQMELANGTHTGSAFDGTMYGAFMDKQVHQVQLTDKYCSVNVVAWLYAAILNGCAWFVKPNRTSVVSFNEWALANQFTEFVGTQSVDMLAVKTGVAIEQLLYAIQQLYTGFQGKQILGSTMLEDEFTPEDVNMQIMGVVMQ

| SMILES | IC50 [1] [nM] | IC50 [2] [nM] | IC50 [3] [nM] | IC50 [4] [nM] | IC50 [5] [nM] | IC50 [6] [nM] | IC50 [7] [nM] | IC50 [1, 8] [nM] | IC50 ([2]; mean, 50 nM protein, 12.5 μM substrate, 30 min pre-incubation, 60 min at 30° C., read-out: Mpro_229E mean IC50) [nM] | IC50 ([3]; mean, 12.5 nM protein, 12.5 μM substrate, 30 min pre-incubation, 60 min at 30° C., read-out: Mpro_HKU1 mean IC50) [nM] | IC50 ([5]; mean, 50 nM protein, 12.5 μM substrate, 30 min pre-incubation, 60 min at 30° C., read-out: Mpro_NL63 mean IC50) [nM] | IC50 ([6]; mean, 25 nM protein, 12.5 μM substrate, 30 min pre-incubation, 60 min at 30° C., read-out: Mpro_OC43 mean IC50) [nM] |
| --- | --- | --- | --- | --- | --- | --- | --- | --- | --- | --- | --- | --- |
| O=C[C@H](C[C@@H]1CCNC1=O)NC(=O)[C@@H]1CC(F)(F)CN1C(=O)c1cc2ccccc2[nH]1 [Compound 115, (S)-4,4-difluoro-1-(1H-Indole-2-carbonyl)-N—((S)-1-oxo-3-((S)-2-oxopyrrolidin-3-yl)propan-2-yl)pyrrolidine-2-carboxamide] | 102 | 53 | 15 | 303 | 105 | 87 | 250 | – | – | – | – | – |
| Cc1cccc2c1cc(C(=O)N1C[C@H]3[C@@H]([C@H]1C(=O)N[C@H](C=O)C[C@@H]1CCNC1=O)C3(C)C)n2C [Compound 118, (1R,2S,5S)-3-(1,4-Dimethylindole-2-carbonyl)-N-[(1S)-1-formyl-2-[(3S)-2-oxopyrrolidin-3-yl]ethyl]-6,6-dimethyl-3-azabicyclo[3.1.0]hexane-2-carboxamide] | 127 | 325 | 324 | 3290 | 1780 | 436 | 349 | – | – | – | – | – |
| Cc1cccc([C@@H](C)C(=O)N2C[C@H]3[C@@H]([C@H]2C(=O)N[C@H](C#N)C[C@@H]2CCNC2=O)C3(C)C)c1 [Compound 120] | – | – | – | 1130 | – | – | 196 | 151 | 299 | 193 | 1400 | 567 |
| CO[C@@H]1C[C@@H](C(=O)N[C@H](C=O)C[C@@H]2CCNC2=O)N(C(=O)c2cc3ccccc3[nH]2)C1 [Compound 121, (2S,4R)-1-(1H-Indole-2-carbonyl)-4-methoxy-N—((S)-1-oxo-3-((S)-2-oxopyrrolidin-3-yl)propan-2-yl)pyrrolidine-2-carboxamide] | 159 | 152 | 546 | 2630 | 198 | 825 | 294 | – | – | – | – | – |
| CC1(C)[C@@H]2[C@@H](C(=O)N[C@H](C=O)C[C@@H]3CCNC3=O)N(C(=O)c3[nH]c4ccccc4c3-c3ccccc3)C[C@@H]21 [Compound 122, (1R,2S,5S)-6,6-Dimethyl-N—((S)-1-oxo-3-((S)-2-oxopyrrolidin-3-yl)propan-2-yl)-3-(3-phenyl-1H-indole-2-carbonyl)-3-azabicyclo[3.1.0]hexane-2-carboxamide] | 162 | 172 | 366 | 1550 | 1020 | 423 | 234 | – | – | – | – | – |
| CC1(C)[C@@H]2[C@@H](C(=O)N[C@H](C#N)C[C@@H]3CCNC3=O)N(C(=O)C3(c4cccc(Cl)c4)CC3)C[C@@H]21 [Compound 123, (1R,2S,5S)-3-(1-(3-Chlorophenyl)cyclopropanecarbonyl)-N—((S)-1-cyano-2-((S)-2-oxopyrrolidin-3-yl)ethyl)-6,6-dimethyl-3-azabicyclo[3.1.0]hexane-2-carboxamide] | – | 459 | 185 | 1180 | 2110 | 419 | 224 | 178 | – | – | – | – |
| CC1(C)[C@@H]2[C@@H](C(=O)N[C@H](C=O)C[C@@H]3CCNC3=O)N(C(=O)C3CCCC3)C[C@@H]21 [Compound 124, (1R,2S,5S)-3-(Cyclopentanecarbonyl)-6,6-dimethyl-N—((S)-1-oxo-3-((S)-2-oxopyrrolidin-3-yl)propan-2-yl)-3-azabicyclo[3.1.0]hexane-2-carboxamide] | – | 162 | 407 | 2000 | 2500 | 490 | 473 | 211 | – | – | – | – |
| O=C[C@H](C[C@@H]1CCNC1=O)NC(=O)[C@@H]1C[C@@H]2C[C@@H]2N1C(=O)c1cc2ccccc2[nH]1 [Compound 125, (1S,3S,5S)-2-(1H-Indole-2-carbonyl)-N—((S)-1-oxo-3-((S)-2-oxopyrrolidin-3-yl)propan-2-yl)-2-azabicyclo[3.1.0]hexane-3-carboxamide] | 228 | 116 | 154 | 916 | 218 | 284 | 685 | – | – | – | – | – |
| O=C[C@H](C[C@@H]1CCNC1=O)NC(=O)[C@@H]1CC2(CC2)CN1C(=O)CC1CCCCC1 [Compound 126, (S)-5-(2-Cyclohexylacetyl)-N—((S)-1-oxo-3-((S)-2-oxopyrrolidin-3-yl)propan-2-yl)-5-azaspiro[2.4]heptane-6-carboxamide] | 231 | 56.3 | 38.4 | 358 | 97.7 | 112 | 84.5 | – | – | – | – | – |
| O=C1NCC[C@H]1C[C@H](NC(=O)[C@@H]1CC2(CC2)CN1C(=O)c1cc2ccccc2[nH]1)C(=O)c1nc2ccccc2s1 [Compound 127, (S)—N—((S)-1-(benzo[d]thiazol-2-yl)-1-oxo-3-((S)-2-oxopyrrolidin-3-yl)propan-2-yl)-5-(1H-indole-2-carbonyl)-5-azaspiro[2.4]heptane-6-carboxamide] | 261 | 95.1 | 372 | 409 | 195 | 507 | 600 | – | – | – | – | – |
| CC1(C)[C@@H]2[C@@H](C(=O)N[C@H](C#N)C[C@@H]3CCNC3=O)N(C(=O)c3cc4c(F)ccc(Cl)c4[nH]3)C[C@@H]21 [Compound 128, (1R,2S,5S)-3-(7-Chloro-4-fluoro-1H-indole-2-carbonyl)-N—((S)-1-cyano-2-((S)-2-oxopyrrolidin-3-yl)ethyl)-6,6-dimethyl-3-azabicyclo[3.1.0]hexane-2-carboxamide] | 318 | 1230 | 1900 | 5580 | 3980 | 1990 | 788 | – | – | – | – | – |
| O=C[C@H](C[C@@H]1CCNC1=O)NC(=O)[C@@H]1C[C@@H]2CCC[C@@H]2N1C(=O)c1cc2ccccc2[nH]1 [Compound 129, (2S,3aS,6aS)-1-(1H-Indole-2-carbonyl)-N—((S)-1-oxo-3-((S)-2-oxopyrrolidin-3-yl)propan-2-yl)octahydrocyclopenta[b]pyrrole-2-carboxamide] | 351 | 38 | 76 | 1110 | 51 | 166 | 874 | – | – | – | – | – |
| O=C[C@H](C[C@@H]1CCNC1=O)NC(=O)[C@@H]1[C@H]2C[C@H]2CN1C(=O)c1cc2ccccc2[nH]1 [Compound 130, (1S,2S,5R)-3-(1H-Indole-2-carbonyl)-N—((S)-1-oxo-3-((S)-2-oxopyrrolidin-3-yl)propan-2-yl)-3-azabicyclo[3.1.0]hexane-2-carboxamide] | 372 | 191 | 87.4 | 838 | 130 | 398 | 832 | – | – | – | – | – |
| CC(C)c1ccc(F)c2[nH]c(C(=O)N3C[C@H]4[C@@H]([C@H]3C(=O)N[C@H](C#N)C[C@@H]3CCNC3=O)C4(C)C)cc12 [Compound 131, (1R,2S,5S)—N—((S)-1-Cyano-2-((S)-2-oxopyrrolidin-3-yl)ethyl)-3-(7-fluoro-4-isopropyl-1H-indole-2-carbonyl)-6,6-dimethyl-3-azabicyclo[3.1.0]hexane-2-carboxamide] | 401 | 690 | 1140 | 9760 | 1590 | 1540 | 772 | – | – | – | – | – |
| CC1(C)[C@@H]2[C@@H](C(=O)N[C@H](C#N)C[C@@H]3CCNC3=O)N(C(=O)c3cc4cccc(Cl)c4[nH]3)C[C@@H]21 [Compound 132, (1R,2S,5S)-3-(7-Chloro-1H-indole-2-carbonyl)-N—((S)-1-cyano-2-((S)-2-oxopyrrolidin-3-yl)ethyl)-6,6-dimethyl-3-azabicyclo[3.1.0]hexane-2-carboxamide] | 434 | 1210 | 1910 | 5440 | 3970 | 3010 | 873 | – | – | – | – | – |
| CC1(C)[C@@H]2[C@@H](C(=O)N[C@H](C#N)C[C@@H]3CCNC3=O)N(C(=O)C3(c4ccccc4)CC3)C[C@@H]21 [Compound 135, (1R,2S,5S)—N—((S)-1-Cyano-2-((S)-2-oxopyrrolidin-3-yl)ethyl)-6,6-dimethyl-3-(1-phenylcyclopropanecarbonyl)-3-azabicyclo[3.1.0]hexane-2-carboxamide] | 468 | 3460 | 766 | 4540 | 11800 | 1870 | 571 | – | – | – | – | – |
